From patent US11155542B2, “Antimicrobial compounds, their use for the treatment of mammalian infections and a new metabolic mechanism” (priority 2016, dated 2021)
Values after ≈ are worked out from the molar mass of the structure shown.

Key:
M. vaccae 10670 = assay: MIC M. vaccae 10670; assay type: cell-based; details: Mycolicibacterium vaccae
[1] = Cytotoxicity determination (HeLa); assay type: cell-based; details: human, HeLa cells (DSM ACC 57)
Method: The test items were dissolved in DMSO (typically 10 mg/mL, less soluble compounds lower). The solutions were diluted in RPMI 1640 medium. HeLa cells (DSM ACC 57) were grown in RPMI 1640 and harvested at the logarithmic growth phase after soft trypsinization using 0.25% trypsin in phosphate buffered saline (PBS) containing 0.02% ethylenediaminetetraacetic acid (EDTA). For each experiment, approximately 10,000 cells were seeded with 0.1 mL culture medium per well of the 96-well microplates. HeLa cells were pre-incubated for 48 h prior to the addition of the test compounds (final DMSO concentration ≤0.5%), which were carefully diluted on the subconfluent monolayers. Incubation was then conducted in a humidified atmosphere at 37° C. and 5% CO2. The adherent HeLa cells were fixed by glutaraldehyde and stained with a 0.05% solution of methylene blue for 10 min. After gently washing, the stain was eluted with 0.2 mL of 0.33 N HCl in the wells. The optical densities were measured at 660 nm in a SUNRISE microplate reader (TECAN).

[2] = assay type: in vitro ADME; details: 5 µg/mL
Method: Human: A BTZ043 solution in DMSO (5 mg/mL) was prepared and 1 μL of this solution was added to 1 mL aliquots fresh whole blood. The mixtures were shaken at 37° C. for 2 h or 16 h and centrifuged at 4° C. and 3000 rpm to yield plasma. Plasma samples (60 μL) were mixed with acetonitrile (240 μL) on ice, vortexed, treated in an ultrasonic bath (3-5 s) and centrifuged at 4° C. and 9750 rpm. The supernatants were concentrated with a nitrogen stream to a residual volume of approximately 40 μL and analyzed by HPLC and LC-HRMS.

Mtb H37Rv = assay: Resazurin microtiter assay (REMA), MIC Mtb H37Rv; assay type: cell-based; details: Mycobacterium tuberculosis
[3] = Blank plasma from untreated animals spiked with BTZ043; assay type: in vitro ADME
Excerpt: It was therefore reasoned, that a possible explanation of this phenomenon would involve a yet unknown metabolite that was either thermally or oxidatively unstable when exposed to air.

M. marinum = assay: MIC M. marinum; assay type: cell-based; details: Mycobacterium marinum
[4] = Minipig plasma samples after oral BTZ043; assay type: in vivo, minipigs; details: plasma samples after incubation at room temperature, in some samples
Method: In order to reveal potentially overlooked metabolites, additional metabolic studies of BTZ043 were performed that incorporated careful analysis of highly resolved HPLC chromatograms of plasma samples after different incubation times at room temperature. To ensure maximum stability of the chromatographic conditions, all solvents were carefully degassed through vacuum treatment and/or sparging with nitrogen. […] The concomitant drastic increase of the BTZ043 peak area (in some samples >100%) emphasized the significance of this transient metabolite. […] It was suspected that this metabolite could be formed through an enzymatic reduction of BTZ043 and that it is unstable towards oxygen from air.
Minipig plasma samples: Minipigs received oral doses of 360 mg/kg BTZ043. Blood was collected 2 h subsequent to administration of the compound formulation, immediately cooled on ice and centrifuged at 4° C. and 3000 rpm to yield plasma aliquots which were snap frozen and stored at −80° C. Plasma aliquots (50 μL) were mixed with acetonitrile (200 μL) on ice and under inert conditions (Don Whitley Scientific, anaerobic workstation), vortexed, treated in an ultrasonic bath (3-5 s) and centrifuged at 4° C. and 9750 rpm. The supernatants were concentrated with a nitrogen stream to a residual volume of approximately 40 μL and analyzed by HPLC and LC-HRMS.

[5] = Chemical stability and solubility of Meisenheimer complexes and methylated derivatives; details: room temperature
Fresh blood assay, mice = assay type: in vitro ADME, C57BL/6J mice; details: in vitro incubation of fresh whole blood, HPLC-HRMS
Method: Mice: Fresh whole blood was collected from C57BL/6J mice after cervical dislocation under isoflurane anesthesia. Test item solutions were prepared in DMSO (5 mg/mL) and 0.4 μL of this solution was added to 400 μL fresh whole blood. The mixtures were incubated at 37° C. for 4 h and centrifuged at 4° C. and 3000 rpm to yield plasma. Plasma samples (50 μL) were mixed with acetonitrile (200 μL) on ice, vortexed, treated in an ultrasonic bath (3-5 s) and centrifuged at 4° C. and 9750 rpm. The supernatants were concentrated with a nitrogen stream to a residual volume of approximately 40 μL and analyzed by HPLC and LC-HRMS.

## C[C@H]1COC2(CCN(c3nc(=O)c4cc(C(F)(F)F)cc([N+](=O)[O-])c4s3)CC2)O1 [BTZ043, (S)-2-(2-methyl-1,4-dioxa-8-azaspiro[4.5]decan-8-yl)-8-nitro-6-(trifluoro-methyl)-4H-1,3-benzothiazin-4-one, reference compound]
M. vaccae 10670
  MIC: < 1.2 ng/mL
[1]
  CC50: > 50 µg/mL
[2]
  Transformation of BTZ043 to 5b in fresh whole human blood: transformation of BTZ043 to 5b after several hours
Mtb H37Rv
  MIC: 1 ng/mL (≈ 0.00232 µM)
[3]
  Peak areas of BTZ043 in spiked blank plasma over time: remained completely unchanged over time
M. marinum
  MIC: 4 ng/mL (≈ 0.00927 µM)
[4]
  Increase of the BTZ043 peak area in plasma samples over time: > 100%

## COC1=C2C=C(C(F)(F)F)CC([N+](=O)[O-])=C2SC(N2CCC3(CC2)OC[C@H](C)O3)=N1 [Compound 6a]
[5]
  Solubility and stability of the methylated derivatives: sufficiently soluble and stable at room temperature

## COC1=C2CC(C(F)(F)F)=CC([N+](=O)[O-])=C2SC(N2CCC3(CC2)OC[C@H](C)O3)=N1 [Compound 6b]
[5]
  Solubility and stability of the methylated derivatives: sufficiently soluble and stable at room temperature

## Cc1c(C(F)(F)F)cc2c(=O)nc(N3CCC4(CC3)OC[C@H](C)O4)sc2c1[N+](=O)[O-] [Example 9a, (S)-7-Methyl-2-(2-methyl-1,4-dioxa-8-azaspiro[4.5]decan-8-yl)-8-nitro-6-(trifluoromethyl)-4H-1,3-benzothiazin-4-one]
M. vaccae 10670
  MIC: 39 ng/mL (≈ 0.0876 µM)
Fresh blood assay, mice
  Formation of the Meisenheimer complex (reduced form) in the blood assay: formed only fairly detectable amounts of the Meisenheimer complex
[1]
  CC50: 38.9 µg/mL (≈ 87.3 µM)
Mtb H37Rv
  MIC: 500 ng/mL (≈ 1.12 µM)
M. marinum
  MIC: 250 ng/mL (≈ 0.561 µM)

## Cc1c(C(F)(F)F)cc([N+](=O)[O-])c2sc(N3CCC4(CC3)OC[C@H](C)O4)nc(=O)c12 [Example 9b, (S)-5-Methyl-2-(2-methyl-1,4-dioxa-8-azaspiro[4.5]decan-8-yl)-8-nitro-6-(trifluoromethyl)-4H-1,3-benzothiazin-4-one]
M. vaccae 10670
  MIC: < 1.2 ng/mL
Fresh blood assay, mice
  Formation of the Meisenheimer complex (reduced form) in the blood assay: could only be detected in trace amounts
[1]
  CC50: > 50 µg/mL
Mtb H37Rv
  MIC: 8 ng/mL (≈ 0.018 µM)
M. marinum
  MIC: 8 ng/mL (≈ 0.018 µM)

## Cc1c(C(F)(F)F)cc([N+](=O)[O-])c2sc(N3CCN(CC4CCCCC4)CC3)nc(=O)c12 [Example 16, 2-(4-(Cyclohexylmethyl)piperazin-1-yl)-5-methyl-8-nitro-6-(trifluoromethyl)-4H-1,3-benzothiazin-4-one]
M. vaccae 10670
  MIC: < 1.2 ng/mL
[1]
  CC50: > 25 µg/mL
Mtb H37Rv
  MIC: 0.5 ng/mL (≈ 0.00106 µM)
M. marinum
  MIC: 1 ng/mL (≈ 0.00213 µM)
